Results published in patent EP4722215A1, “AMORPHOUS SUBSTANCE AND CRYSTAL OF DIOXOPIPERIDINE COMPOUND OR PHARMACEUTICALLY ACCEPTABLE SALT THEREOF, PREPARATION METHOD, AND USE” (Jiangsu Hengrui Pharmaceuticals Co., Ltd., priority 2023, dated 2024).
Where a name gives a salt, the structure may show the parent alone.

How the values were obtained:
[1] = Pharmacokinetic evaluation in cynomolgus monkeys, intragastric administration, plasma LC/MS/MS; assay type: in vivo; conditions: both sexes, cynomolgus monkey, po, i.g., 2.0 mg/kg
Method: Cynomolgus monkeys were used as test animals.
Eight cynomolgus monkeys (half male and half female, provided by Shanghai Medicilon Inc.) were evenly divided into 2 groups.
Access to food and ad libitum access to water were given 3 h after administration.

in vivo = conditions: both, beagle, dog, plasma, po, 2 mg/kg
Method: Beagles were used as test animals. The plasma concentrations of a compound of the present disclosure in beagles at different time points after intragastric (i.g.) administration were determined using an LC/MS/MS method. The pharmacokinetic behavior of the compound of the present disclosure in beagles was studied, and its pharmacokinetic profile was evaluated.
Eight beagles (half male and half female, provided by Jiangsu Johnbio Biotechnology Co., Ltd.) were evenly divided into 2 groups. The animals were fasted overnight and then subjected to intragastric administration.
The administration dose was 2.0 mg/kg, and the administration volume was 5.0 mL/kg.
The samples were then placed into EDTA-K2 anticoagulation test tubes and centrifuged at 10,000 rpm for 2 min (4 °C), and plasma was separated within 1 h and stored at -80 °C before analysis. The procedures from the blood collection to the centrifugation were performed under ice-bath conditions. Access to food was given 3 h after administration.
After administration of different concentrations of the test compounds, the plasma concentrations of the test compounds in the beagles were determined as follows: 50 µL of each of the beagle plasma samples collected at various time points after administration was taken; 25 µL of camptothecin (1 µg/mL) and 450 µL of acetonitrile were added to precipitate protein, and the mixture was vortex-mixed and then centrifuged at 3700 rpm for 10 min; 0.5 µL of the supernatant was taken for LC/MS/MS analysis.

[2] = Long-term/accelerated stability study (sealed in aluminum foil bags); assay type: physicochemical; conditions: for Crystal form: up to 6 months
Text: The results are shown below. Table 16
The results are shown below. Table 20

[3] = Influencing factor stability study (open containers, high temperature / high humidity, 30 days); assay type: physicochemical
Method: Influencing factor stability study: Samples of the free-state form were taken, spread in open containers, and left to stand under high-temperature (40 °C and 60 °C) and high-humidity (RH 75% and RH 92.5%) conditions for 30 days to study its stability.
Influencing factor stability study of salt forms: Samples of the salt forms were taken, spread in open containers, and left to stand under high-temperature (40 °C and 60 °C) and high-humidity (RH 75%) conditions for 30 days to study their stability.

androgen receptor (AR) = target: T1, androgen receptor (AR) (Homo sapiens, UniProt P10275, T878A); assay: Degradation activity on androgen receptor in LNCaP cells (AR ELISA); assay type: cell-based; conditions: 0.1 nM R1881, 24 h
T1 construct: host or cells: LNCaP
Method: After five washes, 100 µL of detection antibody working solution was added. […] After five washes, 100 µL of enzyme conjugate working solution was added. […] After five washes, 100 µL of substrate solution was added.

[4] = Dynamic vapor sorption (DVS) hygroscopicity; assay type: physicochemical

T1 sequence (P10275 whole entry T878A): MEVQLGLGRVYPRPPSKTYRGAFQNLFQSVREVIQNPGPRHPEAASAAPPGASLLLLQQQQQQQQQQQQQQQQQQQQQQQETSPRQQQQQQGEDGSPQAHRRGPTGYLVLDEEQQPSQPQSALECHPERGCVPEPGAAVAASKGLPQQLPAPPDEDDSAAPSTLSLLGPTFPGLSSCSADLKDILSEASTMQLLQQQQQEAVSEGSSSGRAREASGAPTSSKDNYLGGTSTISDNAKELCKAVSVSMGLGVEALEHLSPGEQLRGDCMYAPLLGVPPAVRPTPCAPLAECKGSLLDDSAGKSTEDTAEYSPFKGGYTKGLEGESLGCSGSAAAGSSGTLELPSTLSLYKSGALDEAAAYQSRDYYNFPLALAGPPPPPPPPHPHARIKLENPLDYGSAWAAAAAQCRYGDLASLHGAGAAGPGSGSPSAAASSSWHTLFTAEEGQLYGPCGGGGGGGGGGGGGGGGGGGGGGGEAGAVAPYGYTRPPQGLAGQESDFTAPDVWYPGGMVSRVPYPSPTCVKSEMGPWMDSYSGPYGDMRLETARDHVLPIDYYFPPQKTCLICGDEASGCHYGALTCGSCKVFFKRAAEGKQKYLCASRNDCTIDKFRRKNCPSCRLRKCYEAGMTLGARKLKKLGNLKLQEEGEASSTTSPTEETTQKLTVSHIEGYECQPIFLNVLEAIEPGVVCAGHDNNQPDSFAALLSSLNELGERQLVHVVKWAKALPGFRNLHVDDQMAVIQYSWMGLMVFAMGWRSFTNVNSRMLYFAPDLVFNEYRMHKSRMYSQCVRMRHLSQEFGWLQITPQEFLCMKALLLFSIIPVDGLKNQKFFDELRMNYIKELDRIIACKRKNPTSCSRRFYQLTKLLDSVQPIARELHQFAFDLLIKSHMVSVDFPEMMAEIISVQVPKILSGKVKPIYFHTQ
T1 sequence (Q96SW2 whole entry partner): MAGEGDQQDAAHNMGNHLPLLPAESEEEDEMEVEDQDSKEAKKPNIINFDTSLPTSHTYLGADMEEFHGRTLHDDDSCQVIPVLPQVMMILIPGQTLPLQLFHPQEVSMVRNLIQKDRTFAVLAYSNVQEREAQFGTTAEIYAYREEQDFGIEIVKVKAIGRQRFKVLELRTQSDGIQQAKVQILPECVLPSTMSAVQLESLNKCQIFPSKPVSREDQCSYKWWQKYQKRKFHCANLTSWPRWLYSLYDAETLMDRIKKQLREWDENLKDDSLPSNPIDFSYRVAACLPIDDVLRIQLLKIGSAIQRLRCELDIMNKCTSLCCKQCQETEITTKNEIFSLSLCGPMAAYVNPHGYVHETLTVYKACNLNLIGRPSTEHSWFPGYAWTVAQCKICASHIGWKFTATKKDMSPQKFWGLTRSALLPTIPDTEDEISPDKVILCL

Row | Compound | Purity (%) ([2]; 25 °C/60% RH, 1 month) | Purity (%) ([2]; 25 °C/60% RH, 2 months) | Purity (%) ([2]; 25 °C/60% RH, 3 months) | Purity (%) ([2]; 25 °C/60% RH, 6 months) | Purity (%) ([2]; 25 °C/60% RH, Initial) | Crystal form ([2]; 25 °C/60% RH) | Purity (%) ([2]; 40 °C/75% RH, 1 month) | Purity (%) ([2]; 40 °C/75% RH, 2 months) | Purity (%) ([2]; 40 °C/75% RH, 3 months) | Purity (%) ([2]; 40 °C/75% RH, 6 months) | Purity (%) ([2]; 40 °C/75% RH, Initial) | Crystal form ([2]; 40 °C/75% RH) | Crystal form ([3]; 40 °C, 5 days) | Purity (%) ([3]; 40 °C, 5 days) | Crystal form ([3]; 40 °C, 10 days) | Purity (%) ([3]; 40 °C, 10 days) | Purity (%) ([3]; 40 °C, 30 days) | Crystal form ([3]; 60 °C, 5 days) | Purity (%) ([3]; 60 °C, 5 days) | Crystal form ([3]; 60 °C, 10 days) | also measured
1 | N#Cc1ccc(O[C@H]2CC[C@H](NC(=O)c3ccc(N4CCC(CN5CCN(c6cc7c(cc6F)C(=O)N(C6CCC(=O)NC6=O)C7=O)CC5)CC4)nn3)CC2)cc1Cl (stereo partly drawn) [ARV-110] | – | – | – | – | – | – | – | – | – | – | – | – | – | – | – | – | – | – | – | – | AUC(0-t) ([1]; read-out: Area under curve AUC0-t): 282 ng·h/mL; CL/F ([1]; read-out: Clearance rate CL/F): 44.6 mL/min/kg; Cmax ([1]; read-out: Plasma concentration Cmax): 15.9 ng/mL; AUC(0-t) (in vivo): 239 ng·h/mL; CL/F (in vivo): 70.9 mL/min/kg; Cmax (in vivo): 13 ng/mL
2 | C[C@H]1CC2(CCN(c3ccc(C(=O)N4CCC(CN5CCN(c6cccc(N[C@H]7CCC(=O)NC7=O)c6)CC5)CC4)cc3F)CC2)CN1c1ccc(C#N)c(Cl)c1 [Amorphous form of maleate] | 98.9% | 98.9% | 98.9% | 98.7% | 98.9% | No change | 98.7% | 98.6% | 98.3% | 94.8% | 98.9% | No change | – | – | – | – | – | – | – | – | –
3 | C[C@H]1CC2(CCN(c3ccc(C(=O)N4CCC(CN5CCN(c6cccc(N[C@H]7CCC(=O)NC7=O)c6)CC5)CC4)cc3F)CC2)CN1c1ccc(C#N)c(Cl)c1 [Amorphous form, 2-chloro-4-((S)-8-(4-(4-((4-(3-(((S)-2,6-dioxopiperidin-3-yl)amino)phenyl)piperazin-1-yl)methyl)piperidine-1-carbonyl)-2-fluorophenyl)-3-methyl-2,8-diazaspiro[4.5]decan-2-yl)benzonitrile] | 98.7% | 98.5% | 98.5% | 98.5% | 98.8% | No change | 98.7% | 98.4% | 98.4% | 98.3% | 98.8% | No change | No change | 98.7% | No change | 98.6% | 98.6% | No change | 98.6% | No change | physical and chemical stability ([2]; long-term accelerated conditions for 6 months): good physical and chemical stability; Crystal form ([3]; 40 °C, 30 days): No change; Purity (%) ([3]; 60 °C, 10 days): 98.6%; Crystal form ([3]; 60 °C, 30 days): No change; Purity (%) ([3]; 60 °C, 30 days): 98.4%; Crystal form ([3]; 75% RH, 5 days): No change; Purity (%) ([3]; 75% RH, 5 days): 98.7%; Crystal form ([3]; 75% RH, 10 days): No change; Purity (%) ([3]; 75% RH, 10 days): 98.7%; Crystal form ([3]; 75% RH, 30 days): No change; Purity (%) ([3]; 75% RH, 30 days): 98.7%; Crystal form ([3]; 92.5% RH, 5 days): No change; Purity (%) ([3]; 92.5% RH, 5 days): 98.7%; Crystal form ([3]; 92.5% RH, 10 days): No change; Purity (%) ([3]; 92.5% RH, 10 days): 98.7%; Crystal form ([3]; 92.5% RH, 30 days): No change; Purity (%) ([3]; 92.5% RH, 30 days): 98.6%; Purity (%) ([3]; Initial, 0 days): 98.8%; chemical stability ([3]; high-temperature and high-humidity conditions): good chemical stability
4 | C[C@H]1CC2(CCN(c3ccc(C(=O)N4CCC(CN5CCN(c6cccc(N[C@H]7CCC(=O)NC7=O)c6)CC5)CC4)cc3F)CC2)CN1c1ccc(C#N)c(Cl)c1 [Example 1-1, 2-Chloro-4-((S)-8-(4-(4-((4-(3-(((S)-2,6-dioxopiperidin-3-yl)amino)phenyl)piperazin-1-yl)methyl)piperidine-1-carbonyl)-2-fluorophenyl)-3-methyl-2,8-diazaspiro[4.5]decan-2-yl)benzonitrile] | – | – | – | – | – | – | – | – | – | – | – | – | – | – | – | – | – | – | – | – | DC50 (androgen receptor (AR)): 4.2 nM
5 | C[C@H]1CC2(CCN(c3ccc(C(=O)N4CCC(CN5CCN(c6cccc(NC7CCC(=O)NC7=O)c6)CC5)CC4)cc3F)CC2)CN1c1ccc(C#N)c(Cl)c1 (stereo partly drawn) [Example 1, 2-Chloro-4-((3S)-8-(4-(4-((4-(3-((2,6-dioxopiperidin-3-yl)amino)phenyl)piperazin-1-yl)methyl)piperidine-1-carbonyl)-2-fluorophenyl)-3-methyl-2,8-diazaspiro[4.5]decan-2-yl)benzonitrile] | – | – | – | – | – | – | – | – | – | – | – | – | – | – | – | – | – | – | – | – | DC50 (androgen receptor (AR)): 2.5 nM
6 | C[C@H]1CC2(CCN(c3ccc(C(=O)N4CCC(CN5CCN(c6cccc(N[C@H]7CCC(=O)NC7=O)c6)CC5)CC4)cc3F)CC2)CN1c1ccc(C#N)c(Cl)c1 [Crystal form A of mandelate] | 99.4% | 99.3% | 99.3% | 99.3% | 99.4% | No change | 99.4% | 99.3% | 99.3% | 98.9% | 99.4% | No change | No change | 98.6% | No change | 98.6% | 98.4% | No change | 98.4% | No change | hygroscopic weight gain ([4]; accelerated test conditions, 70% RH): about 1.047%; crystal form before and after DVS testing (XRPD) ([4]; before and after DVS testing): did not change; hygroscopic weight gain ([4]; extreme conditions, 90% RH): about 2.245%; hygroscopic weight gain ([4]; normal storage conditions, 25 °C and 60% RH): about 0.833%; Crystal form ([3]; 40 °C, 30 days): No change; Purity (%) ([3]; 60 °C, 10 days): 98.5%; Crystal form ([3]; 60 °C, 30 days): No change; Purity (%) ([3]; 60 °C, 30 days): 98.2%; Crystal form ([3]; 75% RH, 5 days): No change; Purity (%) ([3]; 75% RH, 5 days): 98.5%; Crystal form ([3]; 75% RH, 10 days): No change; Purity (%) ([3]; 75% RH, 10 days): 98.5%; Crystal form ([3]; 75% RH, 30 days): No change; Purity (%) ([3]; 75% RH, 30 days): 98.5%; Purity (%) ([3]; Initial, 0 days): 98.6%
7 | C[C@H]1CC2(CCN(c3ccc(C(=O)N4CCC(CN5CCN(c6cccc(N[C@H]7CCC(=O)NC7=O)c6)CC5)CC4)cc3F)CC2)CN1c1ccc(C#N)c(Cl)c1 [Crystal form B of succinate] | 98.5% | 98.5% | 98.7% | 98.6% | 98.7% | No change | 98.5% | 98.5% | 98.5% | 98.3% | 98.7% | No change | – | – | – | – | – | – | – | – | –
8 | C[C@H]1CC2(CCN(c3ccc(C(=O)N4CCC(CN5CCN(c6cccc(N[C@H]7CCC(=O)NC7=O)c6)CC5)CC4)cc3F)CC2)CN1c1ccc(C#N)c(Cl)c1 [Crystal form I of hydrochloride] | – | – | – | – | – | – | – | – | – | – | – | – | No change | 97.5% | No change | 96.9% | 95.3% | No change | 97.2% | No change | Purity (%) ([3]; 60 °C, 10 days): 96.5%; Purity (%) ([3]; 60 °C, 30 days): 94.5%; Crystal form ([3]; 75% RH, 5 days): No change; Purity (%) ([3]; 75% RH, 5 days): 97.5%; Crystal form ([3]; 75% RH, 10 days): No change; Purity (%) ([3]; 75% RH, 10 days): 97.1%; Purity (%) ([3]; 75% RH, 30 days): 96.5%; Purity (%) ([3]; Initial, 0 days): 98.1%
9 | C[C@H]1CC2(CCN(c3ccc(C(=O)N4CCC(CN5CCN(c6cccc(N[C@@H]7CCC(=O)NC7=O)c6)CC5)CC4)cc3F)CC2)CN1c1ccc(C#N)c(Cl)c1 [Example 1-2, 2-Chloro-4-((S)-8-(4-(4-((4-(3-(((R)-2,6-dioxopiperidin-3-yl)amino)phenyl)piperazin-1-yl)methyl)piperidine-1-carbonyl)-2-fluorophenyl)-3-methyl-2,8-diazaspiro[4.5]decan-2-yl)benzonitrile] | – | – | – | – | – | – | – | – | – | – | – | – | – | – | – | – | – | – | – | – | DC50 (androgen receptor (AR)): 14.2 nM
